From patent US10865213B2, “Max binders as MYC modulators and uses thereof” (Massachusetts Institute of Technology, priority 2016, dated 2020)
≈ marks a conversion by molar mass, not a printed value. Where two headings read alike, the source gives them in different places. One block for each compound: values may come before it.

Key:
c-Myc = c-Myc reporter gene assay (Qiagen), Firefly/Renilla ratio, HEK293T cells; assay type: cell-based
Description: The activity of Compound 1 against Myc was measured as a Firefly/Renilla ratio, using the Myc reporter assay (Qiagen) in HEK293T cells after treatment with Compound 1 for 16 hours. Results are expressed as a mean+/−SD (n=3). SD: standard deviation.
Select compounds described herein that were SMM assay positives were evaluated in several versions of a c-Myc reporter gene assay, including a commercial assay from Qiagen. The compounds' activities against c-Myc were measured as a Firefly/Renilla ratio, using the Myc reporter assay (Qiagen) in HEK293T cells after treatment with the compounds for 16 hours.

P493-6 Myc ON cells = assay: Cell viability, CELL TITER GLO, P493-6 Myc ON; assay type: cell-based, human
Text: (§1) FIGS. 3A to 3B show exemplary results of an assay of cell viability and the selectivity of Compound 1 for cells expressing Myc and non-Myc expressing cells. Compound 1 affected cell viability after treatment with Compound 1 for 3 days, as measured using CELL TITER GLO (Promega) in a cancer cell line (P493-6, derived from human B-cells), where Myc is ON (FIG. 3A) or Myc is OFF (FIG. 3B). Results were expressed as a mean+/−SEM (n=3). RLU: Relative Luminescence Units.
(§2) The selectivity of Compound 1 for cells expressing Myc over non-Myc expressing cells in cancer cell line P493-6 (engineered cell line derived from human B-cells) was determined. Adding doxycycline to P493-6 growth media shuts off Myc transcription. Exemplary results are shown in FIGS. 3A to 3B, where cell viability was assessed by CELL TITER GLO assay (Promega). FIG. 3A depicts the assay results for cells expressing Myc, and FIG. 3B depicts the assay results for non-Myc expressing cells. […] The selectivity of other compounds described herein in cancer cell line cancer cell line P493-6 was also determined, and exemplary results are shown in Table 2, where viability was assessed by CELL TITER GLO assay (Promega).

P493-6 Myc OFF cells = assay: Cell viability, CELL TITER GLO, P493-6 Myc OFF; assay type: cell-based, human
Text: as §1, §2

P3HR1 = assay: Viability assay in P3HR1; assay type: cell-based; conditions: Homo sapiens, P3HR-1; P3HR1, non-engineered cell line
ST-486 = assay: Viability assay in ST-486; assay type: cell-based; conditions: Homo sapiens, ST486; ST-486, non-engineered cell line
c-Myc/Max heterodimer = c-Myc/Max heterodimer (Homo sapiens, UniProt P61244); assay: Electrophoretic mobility shift assay, c-Myc/Max heterodimer; assay type: binding
Sequence of c-Myc/Max heterodimer (P61244 whole entry, one chain of several): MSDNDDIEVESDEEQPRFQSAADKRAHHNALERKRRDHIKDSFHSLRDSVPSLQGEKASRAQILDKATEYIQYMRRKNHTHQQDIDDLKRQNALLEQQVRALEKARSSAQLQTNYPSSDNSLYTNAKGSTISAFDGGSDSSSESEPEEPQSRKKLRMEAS
Text: (§3) This leads to a hypothesize that KI-MS2-008 stabilizes the Max homodimer.

Max homodimer [1] = molecular target: T1, Max homodimer (Homo sapiens, UniProt P61244); assay: EMSA with recombinant Max, homodimer binding to DNA
T1 sequence (P61244 whole entry): as the sequence (P61244 whole entry, one chain of several) above
Text: as §3

Max homodimer [2] = molecular target: T1, Max homodimer; assay: fPLC quantification of Max monomer vs. Max homodimer; assay type: binding; conditions: monomer vs. homodimer populations
Text: as §3

Myc = Myc protein levels; assay type: cell-based; conditions: recovered by proteasome inhibition
Myc transcript = assay: qPCR of Myc transcript levels; assay type: cell-based
MYC-driven T-ALL model = assay: MYC-driven T-ALL / lymphoma model, Luc-labeled cells transplanted into NSG mice; assay type: in vivo
[3] = Aqueous solubility at 25° C.; assay type: physicochemical
[4] = Intrinsic clearance, liver microsomes; assay type: in vitro ADME; conditions: Intrinsic clearance (liver microsomes, human)
[5] = system: ST486, CA46, NCI-H1963, GBM4 cancer cell lines; assay: Cell viability, CELL TITER GLO, cancer cell lines ST486, CA46, NCI-H1963, GBM4; assay type: cell-based; conditions: 3 days treatment (4 days GBM4)
Description: Compound 1 affected cell viability after treatment with Compound 1 for 3 days (and 4 days for GBM4 and NHA), as measured using CELL TITER GLO (Promega) in 4 different cancer cell lines: ST486 (Burkitt's lymphoma; FIG. 2), CA46 (Burkitt's lymphoma; FIG. 2), NCI-H1963 (small cell lung cancer; FIG. 2), and GBM4 (glioblastoma; FIG. 2). The cell viability of normal human astrocytes (NHA) was also assayed. Results were expressed as a mean+/−SEM (n=2). The effect of Compound 1 on cell viability in several cancer cell lines and normal human astrocytes (NHA) was determined. The cancer cell lines employed in the assay included those corresponding to Burkitt's lymphoma (ST486 and CA46), small cell lung cancer (NCI-H1963), and glioblastoma (GBM4). The cell viability of normal human astrocytes (NHA) was also assayed. Exemplary results are shown in FIG. 2, where viability was assessed by CELL TITER GLO assay (Promega). […] The effects of other compounds described herein on cell viability in several cancer cell lines were also determined, and exemplary results are shown in Table 2, where viability was assessed by CELL TITER GLO assay (Promega).

[6] = Table 3, read-out: IC50 Reporter assay
[7] = Table 3, read-out: IC50 Myc OFF
[8] = Homo sapiens, HEK-293T, HEK293T cells, 16 hours, Table 2, read-out: c-Myc reporter assay IC50
[9] = Homo sapiens, HEK-293T, read-out: IC50 value in Myc reporter assay

Structure (SMILES): O=C1N(CCS(=O)(=O)c2ccccc2)Cc2ccccc2[C@@H]2OC(c3ccc(OCCCO)cc3)=N[C@]12Cc1ccccc1 (single isomer, unassigned) [15^a]
- IC50 (c-Myc; HEK293T cells, 16 hours, Table 2, read-out: c-Myc reporter assay IC50): 4.28 µM
- IC50 (c-Myc; Table 3, listed as 15^b, read-out: IC50 Reporter assay): 4.74 µM
- IC50 (c-Myc; Table 3, listed as 15^c, read-out: IC50 Reporter assay): 4.77 µM
- IC50 (c-Myc; [6]): 11.7 µM
- IC50 (P493-6 Myc ON cells; Table 3, listed as 15^b, read-out: IC50 Myc ON): 8.49 µM
- IC50 (P493-6 Myc ON cells; Table 3, listed as 15^c, read-out: IC50 Myc ON): 16.6 µM
- IC50 (P493-6 Myc ON cells; Table 3, read-out: IC50 Myc ON): 14.5 µM
- IC50 (P493-6 Myc OFF cells; [7]): > 50 µM

Structure (SMILES): O=C1NCc2ccccc2[C@@H]2OC(c3ccccc3)=N[C@]12Cc1ccccc1 [Compound 2a]
- IC50 (c-Myc; [6]): 16.8 µM
- IC50 (P493-6 Myc ON cells; Table 3, read-out: IC50 Myc ON): > 50 µM
- IC50 (P493-6 Myc OFF cells; [7]): > 50 µM

Structure (SMILES): O=C1N(CCS(=O)(=O)c2ccccc2)Cc2ccccc2[C@@H]2OC(c3ccccc3)=N[C@]12Cc1ccccc1 [Compound 3a]
- IC50 (c-Myc; [6]): 6.19 µM
- IC50 (P493-6 Myc ON cells; Table 3, read-out: IC50 Myc ON): 11.4 µM
- IC50 (P493-6 Myc OFF cells; [7]): > 50 µM

Structure (SMILES): O=C1N(CCS(=O)(=O)c2ccccc2)Cc2ccccc2[C@@H]2OC(c3ccc(OCCCO)cc3)=N[C@]12Cc1ccccc1 [Compound 1]
- IC50 (c-Myc; [8]): 1.99 µM
- IC50 (c-Myc; [9]): 2.77 µM
- IC50 (P493-6 Myc ON cells; Homo sapiens, P493-6, CELL TITER GLO, Table 2, read-out: P493-6 Myc ON Viability in cells): 6.8 µM
- Selectivity for cells expressing Myc over non-Myc expressing cells (P493-6 Myc ON cells; P493-6, Myc ON vs. Myc OFF (doxycycline)): demonstrated a selectivity for cells expressing Myc
- IC50 (P493-6 Myc OFF cells; Homo sapiens, P493-6, CELL TITER GLO, Table 2, read-out: P493-6 Myc OFF Viability in cells): 58.1 µM
- solubility ([3]; Aqueous solubility (simulated gastric fluid)): 51.2 µM (≈ 31.3 µg/mL)
- solubility ([3]; aqueous buffer, Aqueous solubility (PBS, pH 7.4)): 9.2 µM (≈ 5.62 µg/mL)
- solubility ([3]; fassgf or other biorelevant, Aqueous solubility (simulated intestinal fluid)): 200 µM (≈ 122 µg/mL)
- half-life [4]: 21 min
- Effect on cell viability [5]: demonstrated an effect in cell viability

Structure (SMILES): O=C1NCc2ccccc2[C@@H]2OC(c3ccccc3)=N[C@H]12 [Compound 1a]
- IC50 (c-Myc; [6]): > 50 µM

Structure (SMILES): C=CCN1Cc2ccccc2[C@@H]2OC(c3ccccc3)=N[C@]2(Cc2ccccc2)C1=O [Compound 4a]
- IC50 (c-Myc; [6]): 7.67 µM
- IC50 (P493-6 Myc ON cells; Table 3, read-out: IC50 Myc ON): 31.8 µM
- IC50 (P493-6 Myc OFF cells; [7]): > 50 µM

Second part, led by results:

- IC50 (c-Myc; [6]): 10.1 µM
Structure (SMILES): C#CCNC(=O)CN1Cc2ccccc2[C@@H]2OC(c3ccccc3)=N[C@]2(Cc2ccccc2)C1=O [Compound 11a]

- Induced dimerization of the Max homodimer (Max homodimer [2]): 9.9%
Structure (SMILES): O=C1N(CCS(=O)(=O)c2ccccc2)Cc2ccccc2[C@@H]2OC(c3ccccc3)=N[C@]12Cc1ccccc1 [KI-MS2-008]
- IC50 (P3HR1): 51.1 µM
- IC50 (ST-486): 18.7 µM
- Disruption of c-Myc/Max heterodimer (EMSA) (c-Myc/Max heterodimer): does not disrupt the c-Myc/Max heterodimer
- Max homodimer binding to DNA (EMSA) (Max homodimer [1]): dose-dependent increase of Max homodimer binding to DNA
- Myc protein levels (Myc): decreases Myc protein levels
- Myc transcript levels (Myc transcript): decreases Myc transcript levels
- Tumor volume (MYC-driven T-ALL model): impacts tumor volume

- IC50 (c-Myc; [6]): 3.38 µM
Structure (SMILES): CCOC(=O)CN1Cc2ccccc2[C@@H]2OC(c3ccccc3)=N[C@]2(Cc2ccccc2)C1=O [Compound 7a]
- IC50 (P493-6 Myc ON cells; Table 3, read-out: IC50 Myc ON): 39.3 µM
- IC50 (P493-6 Myc OFF cells; [7]): > 50 µM

- IC50 (c-Myc; [8]): 4.67 µM
Structure (SMILES): COC(=O)[C@@]1(Cc2ccccc2)N=C(c2ccccc2)O[C@H]1c1ccccc1CN=[N+]=[N-] [Compound 6, Methyl (4S,5S)-5-(2-(azidomethyl)phenyl)-4-benzyl-2-phenyl-4,5-dihydrooxazole-4-carboxylate]

- IC50 (c-Myc; [6]): 18.7 µM
Structure (SMILES): C#CCN(CC(=O)NCCNC(=O)CN1Cc2ccccc2[C@@H]2OC(c3ccccc3)=N[C@]2(Cc2ccccc2)C1=O)C(=O)CCC1(C)N=N1 [Compound 12a]

- IC50 (c-Myc; [8]): 5.38 µM
- IC50 (c-Myc; [9]): 5.4 µM
Structure (SMILES): O=C(CCCCC1SCC2NC(=O)NC21)NCCOCCOCCNC(=O)OCCCOc1ccc(C2=N[C@]3(Cc4ccccc4)C(=O)N(CCS(=O)(=O)c4ccccc4)Cc4ccccc4[C@@H]3O2)cc1 (stereo partly drawn) [Compound 5]

- IC50 (c-Myc; [6]): 2.15 µM
Structure (SMILES): O=C1N(CCO)Cc2ccccc2[C@@H]2OC(c3ccccc3)=N[C@]12Cc1ccccc1 [Compound 10a]

- IC50 (c-Myc; [6]): > 50 µM
Structure (SMILES): O=C(O)CN1Cc2ccccc2[C@@H]2OC(c3ccccc3)=N[C@]2(Cc2ccccc2)C1=O [Compound 8a]
- IC50 (P493-6 Myc ON cells; Table 3, read-out: IC50 Myc ON): > 50 µM
- IC50 (P493-6 Myc OFF cells; [7]): > 50 µM
